Measurements published in ChEMBL document CHEMBL4808200, “Identification of a Series of N-Methylpyridine-2-carboxamides as Potent and Selective Inhibitors of the Second Bromodomain (BD2) of the Bromo and Extra Terminal Domain (BET) Proteins” (J Med Chem, 2021).
Values after ≈ are worked out from the molar mass of the structure shown.

Tests used:
[1] = Permeability of the compound at pH 7.4 by artificial membrane permeability assay; type: ADME; settings: PAMPA, read-out: permeability
[2] = Solubility of the compound in pH 6.5 FaSSIF at […] measured after 16 hrs by HPLC analysis; type: physicochemical
physchem = settings: buffer, pH 7.4
[3] = Clearance in Wistar Han rat at 1 mg/kg, iv administered as 1 hr infusion or 3 mg/kg, po administered via gavage by LC-MS/MS analysis; type: ADME, organism-based; settings: in vivo
[4] = Unbound clearance in Beagle dog at 0.5 mg/kg, iv administered as 1 hr infusion on day 1 and day 7 to achieve a target dose of 1 mg/kg by LC-MS/MS analysis; type: ADME, organism-based, Canis lupus familiaris; settings: in vivo, 168 h, dose 0.5-1 mg/kg, time 7 day
[5] = Intrinsic clearance in human cryopreserved pooled hepatocytes at 0.5 uM measured up to 120 mins by LC-MS/MS analysis; type: ADME, tissue-based, Hepatocyte; settings: 2 h
[6] = Unbound clearance in Wistar Han rat at 1 mg/kg, iv administered as 1 hr infusion or 3 mg/kg, po administered via gavage by LC-MS/MS analysis; type: ADME, organism-based; settings: in vivo
[7] = Volume of distribution at steady state in Beagle dog at 0.5 mg/kg, iv administered as 1 hr infusion on day 1 and day 7 to achieve a target dose of 1 mg/kg by LC-MS/MS analysis; type: ADME, organism-based, Canis lupus familiaris; settings: in vivo, dose 0.5-1 mg/kg, time 7 day, read-out: Vdss
[8] = Volume of distribution at steady state in Wistar Han rat at 1 mg/kg, iv administered as 1 hr infusion or 3 mg/kg, po administered via gavage by LC-MS/MS analysis; type: ADME, organism-based; settings: in vivo, read-out: Vdss
[9] = Oral bioavailability in Beagle dog; type: ADME, organism-based, Canis lupus familiaris; settings: in vivo
[10] = Oral bioavailability in Wistar Han rat at 3 mg/kg administered via gavage by LC-MS/MS analysis; type: ADME, organism-based; settings: in vivo
[11] = Half life in Wistar Han rat at 1 mg/kg, iv administered as 1 hr infusion or 3 mg/kg, po administered via gavage by LC-MS/MS analysis; type: ADME, organism-based; settings: in vivo
[12] = Intrinsic clearance in Wistar Han rat cryopreserved pooled hepatocytes at 0.5 uM measured up to 60 mins by LC-MS/MS analysis; type: ADME, tissue-based, Hepatocyte; settings: 1 h
[13] = Half life in Beagle dog at 0.5 mg/kg, iv administered as 1 hr infusion on day 1 and day 7 to achieve a target dose of 1 mg/kg by LC-MS/MS analysis; type: ADME, organism-based, Canis lupus familiaris; settings: in vivo, dose 0.5-1 mg/kg, time 7 day
[14] = Clearance in Beagle dog at 0.5 mg/kg, iv administered as 1 hr infusion on day 1 and day 7 to achieve a target dose of 1 mg/kg by LC-MS/MS analysis; type: ADME, organism-based, Canis lupus familiaris; settings: in vivo, dose 0.5-1 mg/kg, time 7 day
[15] = Intrinsic clearance in Beagle dog cryopreserved pooled hepatocytes at 0.5 uM measured up to 120 mins by LC-MS/MS analysis; type: ADME, tissue-based, Canis lupus familiaris, Hepatocyte; settings: 2 h

## CNC(=O)c1cc(C(=O)NC(C)C)cc(Cc2ccccc2)n1
[1]
  Papp: 57 ×10⁻⁶ cm/s
[2]
  solubility at 16 h: 101 µg/mL (≈ 324 µM)

## CNC(=O)c1cc(C(=O)N[C@H]2C[C@H](O)C2)cc(Cc2ccccc2)n1
physchem
  chromatographic logD: 2.7
[1]
  Papp: 7.3 ×10⁻⁶ cm/s
[2]
  solubility at 16 h: 194 µg/mL (≈ 572 µM)

## CNC(=O)c1cc(C(=O)N[C@H]2C[C@@H]2C)cc(Cc2ccccc2)n1
physchem
  chromatographic logD: 4.6
[1]
  Papp: 63 ×10⁻⁶ cm/s
[2]
  solubility at 16 h: 94 µg/mL (≈ 291 µM)

## CNC(=O)c1cc(C(=O)N[C@H]2[C@@H]3C[C@H](O)C[C@@H]32)cc(Cc2ccccc2)n1
physchem
  chromatographic logD: 3.5
[1]
  Papp: 15 ×10⁻⁶ cm/s
[2]
  solubility at 16 h: 43 µg/mL (≈ 118 µM)

## CNC(=O)c1cc(C(=O)N[C@H]2C[C@@H]2C)cc([C@@H](CO)c2ccccc2)n1
physchem
  chromatographic logD: 3.3
[1]
  Papp: 10 ×10⁻⁶ cm/s
[2]
  solubility at 16 h: > 1000 µg/mL

## CNC(=O)c1cc(C(=O)NC2CC2)cn([C@H](C)c2ccccc2)c1=O
physchem
  chromatographic logD: 3.5

## CC(=O)Nc1ccc(C(=O)NCCc2cnc[nH]2)cc1OCc1ccccc1
physchem
  chromatographic logD: 2.2

## CNC(=O)c1cc(C(=O)NC2CC2)cc([C@@H](O)c2ccccc2)n1
physchem
  chromatographic logD: 2.4
[1]
  Papp: 7.15 ×10⁻⁶ cm/s
[2]
  solubility at 16 h: > 1000 µg/mL

## CNC(=O)c1cc(C(=O)N[C@H]2[C@@H]3COC[C@@H]32)cc(C(O)c2ccccc2)n1 (some centres undefined)
physchem
  chromatographic logD: 2.2
[1]
  Papp: 2.4 ×10⁻⁶ cm/s
[2]
  solubility at 16 h: 473 µg/mL (≈ 1290 µM)

## CNC(=O)c1cc(C(=O)N[C@H]2[C@@H]3C[C@@H](O)C[C@@H]32)cc(Cc2ccccc2)n1
physchem
  chromatographic logD: 3.1
[1]
  Papp: 7.1 ×10⁻⁶ cm/s
[2]
  solubility at 16 h: 143 µg/mL (≈ 391 µM)

## CNC(=O)c1cc(C(=O)NC2CCOCC2)cc(Cc2ccccc2)n1
physchem
  chromatographic logD: 3.7
[1]
  Papp: 22 ×10⁻⁶ cm/s
[2]
  solubility at 16 h: 173 µg/mL (≈ 489 µM)

## CCNC(=O)c1cc(Cc2ccccc2)nc(C(=O)NC)c1
physchem
  chromatographic logD: 3.7
[2]
  solubility at 16 h: 310 µg/mL (≈ 1040 µM)

## CNC(=O)c1cc(C(=O)N[C@H]2[C@@H]3C[C@H](O)C[C@@H]32)cc([C@@H](C)c2ccccc2)n1
physchem
  chromatographic logD: 4.1
[1]
  Papp: 28 ×10⁻⁶ cm/s
[2]
  solubility at 16 h: 572 µg/mL (≈ 1510 µM)

## CNC(=O)c1cc(C(=O)NC2CC2)cc(Cc2cccc3cn[nH]c23)n1
physchem
  chromatographic logD: 2.9
[1]
  Papp: 20 ×10⁻⁶ cm/s

## CC(=O)Nc1c(F)cc(C(=O)N[C@H]2CC[C@H](O)CC2)cc1O[C@@H](C)c1ccccc1 [GSK046]
physchem
  chromatographic logD: 2.8

## CNC(=O)c1cc(C(=O)NC2CC2)cn([C@@H](C)c2ccccc2)c1=O
physchem
  chromatographic logD: 3.3
[2]
  solubility at 16 h: 598 µg/mL (≈ 1760 µM)

## CNC(=O)c1cc(C(=O)NC2CC2)cn(Cc2cccc3[nH]ccc23)c1=O
[1]
  Papp: 17.8 ×10⁻⁶ cm/s
[2]
  solubility at 16 h: 20 µg/mL (≈ 54.9 µM)

## CNC(=O)c1cc(C(=O)NC2CC2)cc(Cc2cccc3[nH]ccc23)n1
physchem
  chromatographic logD: 3.5
[1]
  Papp: 30.5 ×10⁻⁶ cm/s

## CNC(=O)c1cc(C(=O)O)cc(Cc2ccccc2)n1
[2]
  solubility at 16 h: > 1000 µg/mL

## CNC(=O)c1cc(C(=O)N[C@H]2C[C@@H]2C)cc([C@@H](CC#N)c2ccccc2)n1
physchem
  chromatographic logD: 4
[1]
  Papp: 35.3 ×10⁻⁶ cm/s

## CNC(=O)c1cc(C(=O)NCCC[C@H]2OC[C@H](N)CO2)cc(Cc2ccccc2)n1
[3]
  clearance: 31 mL/min/kg
[4]
  CL free: 118 mL/min/kg
[5]
  CLH: < 0.45 mL/min/g
[6]
  CL free: 365 mL/min/kg
physchem
  chromatographic logD: 2.8
[7]
  Vd: 2.4 L/kg
[8]
  Vd: 0.7 L/kg
[9]
  bioavailability: 98%
[1]
  Papp: 15 ×10⁻⁶ cm/s
[10]
  bioavailability: 28%
[11]
  half-life: 24 min
[12]
  CLH: 1.04 mL/min/g
[13]
  half-life: 54 min
[14]
  clearance: 42 mL/min/kg
[15]
  CLH: < 0.65 mL/min/g

## CNC(=O)c1cc(C(=O)NC2CC2)cc(Cc2ccccc2)n1
[3]
  clearance: 12 mL/min/kg
[5]
  CLH: < 0.87 mL/min/g
[6]
  CL free: 343 mL/min/kg
physchem
  chromatographic logD: 3.9
[8]
  Vd: 0.4 L/kg
[1]
  Papp: 38.5 ×10⁻⁶ cm/s
[10]
  bioavailability: 29%
[11]
  half-life: 18 min
[2]
  solubility at 16 h: 89 µg/mL (≈ 288 µM)
[12]
  CLH: 5.3 mL/min/g
[15]
  CLH: < 1.3 mL/min/g

## CNC(=O)c1cc(Cc2ccccc2)nc(C(=O)NC)c1
physchem
  chromatographic logD: 3.1
[1]
  Papp: 20 ×10⁻⁶ cm/s
[2]
  solubility at 16 h: > 1000 µg/mL

## CNC(=O)c1cc(C(=O)NC2COC2)cc(Cc2ccccc2)n1
physchem
  chromatographic logD: 3.1
[1]
  Papp: 16 ×10⁻⁶ cm/s
[2]
  solubility at 16 h: 73 µg/mL (≈ 224 µM)

## CNC(=O)c1cc(C(=O)N[C@H]2C[C@@H]2C)cc(C(OC)c2ccccc2)n1 (some centres undefined)
physchem
  chromatographic logD: 4.3
[1]
  Papp: 56 ×10⁻⁶ cm/s

## CNC(=O)c1cc(C(=O)NC2CC2)cc(Cc2cccc3c2CCN3)n1.Cl
[3]
  clearance: 33 mL/min/kg
[5]
  CLH: < 0.45 mL/min/g
[6]
  CL free: 73 mL/min/kg
physchem
  chromatographic logD: 3
[8]
  Vd: 4.1 L/kg
[1]
  Papp: 19 ×10⁻⁶ cm/s
[10]
  bioavailability: 98%
[11]
  half-life: 114 min
[2]
  solubility at 16 h: 953 µg/mL
[12]
  CLH: 0.88 mL/min/g
[15]
  CLH: < 0.65 mL/min/g

## CNC(=O)c1cc(C(=O)NC2CC2)cc([C@H](C)c2ccccc2)n1
physchem
  chromatographic logD: 4.3
[1]
  Papp: 49 ×10⁻⁶ cm/s
[2]
  solubility at 16 h: 182 µg/mL (≈ 563 µM)

## CNC(=O)c1cc(C(=O)N[C@H]2CC[C@H](O)CC2)cc(Cc2ccccc2)n1
physchem
  chromatographic logD: 3.1
[1]
  Papp: 8.6 ×10⁻⁶ cm/s
[2]
  solubility at 16 h: 473 µg/mL (≈ 1290 µM)

## CNC(=O)c1cc(C(N)=O)cc(Cc2ccccc2)n1
physchem
  chromatographic logD: 2.7
[1]
  Papp: 21 ×10⁻⁶ cm/s

## CNC(=O)c1cc(C(=O)N[C@H]2[C@@H]3COC[C@@H]32)cc(C(CC#N)c2ccccc2)n1 (some centres undefined)
[3]
  clearance: 70 mL/min/kg
[5]
  CLH: < 0.45 mL/min/g
physchem
  chromatographic logD: 3.1
[8]
  Vd: 5.9 L/kg
[1]
  Papp: 20 ×10⁻⁶ cm/s
[10]
  bioavailability: 54%
[11]
  half-life: 264 min
[2]
  solubility at 16 h: 930 µg/mL (≈ 2380 µM)
[12]
  CLH: 1.87 mL/min/g
[15]
  CLH: < 0.65 mL/min/g

## CNC(=O)c1cccc(Cc2ccccc2)n1
physchem
  chromatographic logD: 4.3
[1]
  Papp: 77 ×10⁻⁶ cm/s
[2]
  solubility at 16 h: 258 µg/mL (≈ 1140 µM)

## CNC(=O)c1cc(C(=O)N[C@H]2[C@@H]3C[C@@H](O)C[C@@H]32)cc(C(OC)c2ccccc2)n1 (some centres undefined)
[3]
  clearance: 57 mL/min/kg
[5]
  CLH: < 0.45 mL/min/g
[6]
  CL free: 95 mL/min/kg
physchem
  chromatographic logD: 2.9
[8]
  Vd: 1.8 L/kg
[1]
  Papp: 5.6 ×10⁻⁶ cm/s
[10]
  bioavailability: 77%
[11]
  half-life: 42 min
[12]
  CLH: < 0.8 mL/min/g
[15]
  CLH: < 0.65 mL/min/g

## CNC(=O)c1cc(C(=O)N[C@H]2[C@@H]3C[C@@H](O)C[C@@H]32)cc([C@@H](C)c2ccccc2)n1
physchem
  chromatographic logD: 3.6
[1]
  Papp: 13 ×10⁻⁶ cm/s
[2]
  solubility at 16 h: 744 µg/mL (≈ 1960 µM)

## CNC(=O)c1cc(C(=O)N(C)C)cc(Cc2ccccc2)n1
physchem
  chromatographic logD: 3.3
[1]
  Papp: 33 ×10⁻⁶ cm/s

## CNC(=O)c1cc(C(=O)NC2CC2)cc([C@@H](C)c2ccccc2)n1
physchem
  chromatographic logD: 4.4
[1]
  Papp: 55.5 ×10⁻⁶ cm/s
[2]
  solubility at 16 h: 123 µg/mL (≈ 380 µM)
